Measured values taken from patent US20120087968A1, “Antimicrobial Packaging Material and Methods of Making and Using the Same” (CRYOVAC, INC., priority 2010, published 2012).

Key:
[1] = test system: E. coli (strain ATCC 4157); assay: Nutrient broth study of LAE materials (aerobic plate count of E. coli culture); format: cell-based; conditions: 0.5 g in 50 mL E. coli broth culture; for Aerobe Count Trial 1 CFU/g / Aerobe Count Trial 1 Log CFU/g / Aerobe Count Trial 1 Mean Log CFU/g / Aerobe Count Trial 2 CFU/g / Aerobe Count Trial 2 Log CFU/g / Aerobe Count Trial 2 Mean Log CFU/g: 45° C.; for growth of bacteria: over the 48 hour time period
Protocol: A culture of Difco nutrient broth (available from Weber Scientific, Hamilton, N.J., United States of America) and E. coli (strain ATCC® 4157™ KWIK STIK™, available from MicroBioLogics, Inc., St. Cloud, Minn., United States of America) was prepared by adding 1 tube of the E. coli to 400 mL of broth medium and incubating overnight at 37° C. Particularly, sample 1 was the positive control, sample 2 contained 0.5 g LAE HCl, sample 3 contained 0.5 g LAE monolaurate, and Sample 4 was the negative control.
Samples 1-4 were incubated at 45° C. and the number of E. coli counts was determined by plating about 1.0 mL of each sample onto aerobic plate count 3M Petrifilm™ plates (available from 3M Microbiology Products, St. Paul, Minn., United States of America) at 0, 24, and 48 hour time points. The experiments were conducted in duplicate.

[2] = test system: E. coli counts / microbial contamination in beef purge; assay: Beef purge study of LAE materials (aerobic plate count); format: cell-based; conditions: 0.5 g in 10 mL beef purge
Protocol: About 30 mL of purge was isolated from two beef tenderloin packages and transferred to three test tubes (10 mL/tube). As set forth in Table 5 below, 0.5 g LAE HCl was added to the purge in sample 5 and 0.5 g LAE monolaurate was added to the purge in sample 6. Sample 7 was the positive control and contained no LAE derivative.
The samples were mixed using a vortex mixer and E. coli counts were determined by plating about 1.0 mL on aerobic plate count 3M Petrifilm™ plates for time 0 readings. The test tubes were then stored in a refrigerator (4° C.) and E. coli counts were determined by plating about 1.0 mL on aerobic plate count 3M Petrifilm™ at 24 and 48 hours. As set forth in Table 6, below, both LAE HCl and LAE Monolaurate eliminated over 99% of the microbial contamination at the 24 and 48 hour time points.

Row | Compound | Aerobe Count Trial 1 CFU/g ([1]; 0 hrs) [CFU/g] | Aerobe Count Trial 1 Log CFU/g ([1]; 0 hrs) [Log CFU/g] | Aerobe Count Trial 1 Mean Log CFU/g ([1]; 0 hrs) [Log CFU/g] | Aerobe Count Trial 2 CFU/g ([1]; 0 hrs) [CFU/g] | Aerobe Count Trial 2 Log CFU/g ([1]; 0 hrs) [Log CFU/g] | Aerobe Count Trial 2 Mean Log CFU/g ([1]; 0 hrs) [Log CFU/g] | Aerobe Count Trial 1 CFU/g ([1]; 24 hrs) [CFU/g] | Aerobe Count Trial 1 Log CFU/g ([1]; 24 hrs) [Log CFU/g] | Aerobe Count Trial 1 Mean Log CFU/g ([1]; 24 hrs) [Log CFU/g] | Aerobe Count Trial 2 CFU/g ([1]; 24 hrs) [CFU/g] | Aerobe Count Trial 2 Log CFU/g ([1]; 24 hrs) [Log CFU/g] | Aerobe Count Trial 2 Mean Log CFU/g ([1]; 24 hrs) [Log CFU/g] | Aerobe Count Trial 1 CFU/g ([1]; 48 hrs) [CFU/g] | Aerobe Count Trial 1 Log CFU/g ([1]; 48 hrs) [Log CFU/g] | Aerobe Count Trial 1 Mean Log CFU/g ([1]; 48 hrs) [Log CFU/g] | Aerobe Count Trial 2 CFU/g ([1]; 48 hrs) [CFU/g] | Aerobe Count Trial 2 Log CFU/g ([1]; 48 hrs) [Log CFU/g] | Aerobe Count Trial 2 Mean Log CFU/g ([1]; 48 hrs) [Log CFU/g] | growth of bacteria [1] | % Reduction ([2]; 0 hrs) [%] | further results
1 | CCCCCCCCCCCC(=O)N[C@@H](CCCN=C(N)N)C(=O)OCC.Cl [LAE HCl, ethyl n-lauroyl-L-arginate hydrochloride salt] | 1 | 0.00 | 0 | 1 | 0.00 | 0 | 1 | 0.00 | 0 | 1 | 0.00 | 0 | 1 | 0.00 | 0 | 1 | 0.00 | 0 | no growth of bacteria | 99.766 | Avg. CFU/g ([2]; 0 hrs): <1.000E+02 CFU/g; Log CFU/g Mean ([2]; 0 hrs): <2.00 Log CFU/g; % Reduction ([2]; 24 hrs at 4° C.): 99.990%; Avg. CFU/g ([2]; 24 hrs at 4° C.): <1.000E+02 CFU/g; Log CFU/g Mean ([2]; 24 hrs at 4° C.): <2.00 Log CFU/g; % Reduction ([2]; 48 hrs at 4° C.): 99.999%; Avg. CFU/g ([2]; 48 hrs at 4° C.): <1.000E+02 CFU/g; Log CFU/g Mean ([2]; 48 hrs at 4° C.): <2.00 Log CFU/g
2 | CCCCCCCCCCCC(=O)N[C@@H](CCCNC(=N)N)C(=O)OCC.CCCCCCCCCCCC(=O)O [LAE monolaurate, ethyl n-lauroyl-L-arginate laurate complex] | 1 | 0.00 | 0 | 1 | 0.00 | 0 | 1 | 0.00 | 0 | 1 | 0.00 | 0 | 1 | 0.00 | 0 | 1 | 0.00 | 0 | no growth of bacteria | 8.798 | Avg. CFU/g ([2]; 0 hrs): 3.890E+04 CFU/g; Log CFU/g Mean ([2]; 0 hrs): 4.59 Log CFU/g; % Reduction ([2]; 24 hrs at 4° C.): 90.880%; Avg. CFU/g ([2]; 24 hrs at 4° C.): 8.913E+04 CFU/g; Log CFU/g Mean ([2]; 24 hrs at 4° C.): 4.95 Log CFU/g; % Reduction ([2]; 48 hrs at 4° C.): 99.960%; Avg. CFU/g ([2]; 48 hrs at 4° C.): 2.818E+03 CFU/g; Log CFU/g Mean ([2]; 48 hrs at 4° C.): 3.45 Log CFU/g
